In test [1] the target is Serine/threonine-protein kinase PLK2 (Homo sapiens, UniProt Q9NYY3). Nature of the test: Inhibition of FITC-GPMQTSpTPKNG-OH binding to Plk2 PBD (unknown origin) after 30 mins by fluorescence polarization assay.
The target in test [2] is Serine/threonine-protein kinase PLK3 (Homo sapiens, UniProt Q9H4B4). Nature of the test: Inhibition of FITC-GPLATSpTPKNG-OH binding to Plk3 PBD (unknown origin) after 30 mins by fluorescence polarization assay. (In general: Fluorescence polarisation rises when a labelled molecule tumbles more slowly, as on binding a larger partner.)
Chain of Serine/threonine-protein kinase PLK3 (Q9H4B4 whole entry): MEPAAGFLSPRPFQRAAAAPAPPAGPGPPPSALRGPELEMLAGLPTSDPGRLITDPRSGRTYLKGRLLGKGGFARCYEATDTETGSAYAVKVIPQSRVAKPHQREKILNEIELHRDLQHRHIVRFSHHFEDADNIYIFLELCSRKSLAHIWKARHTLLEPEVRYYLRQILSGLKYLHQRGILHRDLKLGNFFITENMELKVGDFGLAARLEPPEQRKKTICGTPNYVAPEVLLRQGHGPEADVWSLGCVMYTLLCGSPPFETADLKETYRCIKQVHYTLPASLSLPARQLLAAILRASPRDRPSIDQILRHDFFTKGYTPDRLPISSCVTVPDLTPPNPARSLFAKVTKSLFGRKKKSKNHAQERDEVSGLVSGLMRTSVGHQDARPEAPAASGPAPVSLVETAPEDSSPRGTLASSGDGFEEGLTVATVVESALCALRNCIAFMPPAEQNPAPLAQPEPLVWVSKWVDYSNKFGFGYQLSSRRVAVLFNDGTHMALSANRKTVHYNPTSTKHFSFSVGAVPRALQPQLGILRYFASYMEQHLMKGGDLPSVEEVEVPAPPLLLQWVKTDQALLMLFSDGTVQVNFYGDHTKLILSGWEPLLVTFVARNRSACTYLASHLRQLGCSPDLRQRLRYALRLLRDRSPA

Square brackets hold non-standard residues; d marks the D form. Peptide text beside a SMILES is read from it. Phe(4-NO2) = N[C@@H](Cc1ccc([N+](=O)[O-])cc1)C(=O)O; Phe(3,4-Cl2) = N[C@@H](Cc1ccc(Cl)c(Cl)c1)C(=O)O; Phe(4-F) = N[C@@H](Cc1ccc(F)cc1)C(=O)O; pT = C[C@@H](OP(=O)(O)O)[C@H](N)C(=O)O

Chain of Serine/threonine-protein kinase PLK2 (Q9NYY3 whole entry): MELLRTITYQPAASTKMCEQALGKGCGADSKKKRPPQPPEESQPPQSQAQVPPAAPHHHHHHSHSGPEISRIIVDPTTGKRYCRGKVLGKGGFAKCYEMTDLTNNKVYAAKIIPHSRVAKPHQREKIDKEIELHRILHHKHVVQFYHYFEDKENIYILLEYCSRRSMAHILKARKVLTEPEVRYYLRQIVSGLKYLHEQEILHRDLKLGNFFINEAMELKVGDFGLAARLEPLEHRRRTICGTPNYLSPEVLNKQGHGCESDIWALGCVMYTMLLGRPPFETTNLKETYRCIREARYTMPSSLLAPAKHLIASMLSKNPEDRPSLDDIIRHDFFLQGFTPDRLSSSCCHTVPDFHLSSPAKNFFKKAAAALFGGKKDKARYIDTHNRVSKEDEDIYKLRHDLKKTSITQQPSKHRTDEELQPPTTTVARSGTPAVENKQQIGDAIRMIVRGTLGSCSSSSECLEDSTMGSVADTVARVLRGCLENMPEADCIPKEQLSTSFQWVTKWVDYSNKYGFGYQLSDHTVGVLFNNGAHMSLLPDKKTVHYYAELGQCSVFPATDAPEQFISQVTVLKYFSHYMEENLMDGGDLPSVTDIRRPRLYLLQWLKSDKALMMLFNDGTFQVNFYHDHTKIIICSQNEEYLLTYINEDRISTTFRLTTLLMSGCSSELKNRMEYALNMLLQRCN

Usually IC50 stands for the point on the concentration scale where inhibition reaches its midpoint. For the molecule `CC[C@H](C)[C@H](NC(=O)[C@H](C)NC(=O)[C@@H](NC(=O)[C@H](CO)NC(=O)[C@H](Cc1cnc[nH]1)NC(=O)[C@H](CC(C)C)NC(=O)[C@@H]1CCCN1C(=O)[C@@H]1CCCN1C(=O)[C@H](CC(=O)O)NC(=O)[C@H](Cc1ccc(F)cc1)NC(=O)[C@@H](NC(=O)[C@H](CCC(N)=O)NC(C)=O)[C@@H](C)O)[C@@H](C)OP(=O)(O)O)C(=O)N[C@@H](Cc1ccc(O)cc1)C(=O)N[C@@H](C)C(=O)N[C@@H](CC(N)=O)C(N)=O` (Ac-QT[Phe(4-F)]DPPLHS[pT]AIYAN-NH2), the IC50 result in test [1] and in test [2] was “Not Active” each time.

Turning to `CC[C@H](C)[C@H](NC(=O)[C@H](C)NC(=O)[C@@H](NC(=O)[C@H](CO)NC(=O)[C@H](Cc1cnc[nH]1)NC(=O)[C@H](CC(C)C)NC(=O)[C@@H]1CCCN1C(=O)[C@@H]1CCCN1C(=O)[C@H](CC(=O)O)NC(=O)[C@H](Cc1ccc([N+](=O)[O-])cc1)NC(=O)[C@@H](NC(=O)[C@H](CCC(N)=O)NC(C)=O)[C@@H](C)O)[C@@H](C)OP(=O)(O)O)C(=O)N[C@@H](Cc1ccc(O)cc1)C(=O)N[C@@H](C)C(=O)N[C@@H](CC(N)=O)C(N)=O` (Ac-QT[Phe(4-NO2)]DPPLHS[pT]AIYAN-NH2), the IC50 result in test [1] and in test [2] was “Not Active” each time.

For `CC[C@H](C)[C@H](NC(=O)[C@H](C)NC(=O)[C@@H](NC(=O)[C@H](CO)NC(=O)[C@H](Cc1cnc[nH]1)NC(=O)[C@H](CC(C)C)NC(=O)[C@@H]1CCCN1C(=O)[C@@H]1CCCN1C(=O)[C@H](CC(=O)O)NC(=O)[C@H](Cc1ccc(Cl)c(Cl)c1)NC(=O)[C@H](CCC(N)=O)NC(C)=O)[C@@H](C)O)C(=O)N[C@@H](Cc1ccc(O)cc1)C(=O)N[C@@H](C)C(=O)N[C@@H](CC(N)=O)C(N)=O` (Ac-Q[Phe(3,4-Cl2)]DPPLHSTAIYAN-NH2), the IC50 result in test [1] and in test [2] was “Not Active” in each case.

Turning to `CC[C@H](C)[C@H](NC(=O)[C@H](C)NC(=O)[C@@H](NC(=O)[C@H](CO)NC(=O)[C@H](Cc1cnc[nH]1)NC(=O)[C@H](CC(C)C)NC(=O)[C@@H]1CCCN1C(=O)[C@@H]1CCCN1C(=O)[C@H](CC(=O)O)NC(=O)[C@H](Cc1ccc(Cl)c(Cl)c1)NC(=O)[C@@H](NC(C)=O)[C@@H](C)O)[C@@H](C)OP(=O)(O)O)C(=O)N[C@@H](Cc1ccc(O)cc1)C(=O)N[C@@H](C)C(=O)N[C@@H](CC(N)=O)C(N)=O` (Ac-T[Phe(3,4-Cl2)]DPPLHS[pT]AIYAN-NH2), the IC50 entry in test [1] and in test [2] was “Not Active” throughout.

`CC[C@H](C)[C@H](NC(=O)[C@H](C)NC(=O)[C@@H](NC(=O)[C@H](CO)NC(=O)[C@H](Cc1cnc[nH]1)NC(=O)[C@H](CC(C)C)NC(=O)[C@@H]1CCCN1C(=O)[C@@H]1CCCN1C(=O)[C@H](CC(=O)O)NC(=O)[C@H](Cc1ccc(Cl)c(Cl)c1)NC(C)=O)[C@@H](C)OP(=O)(O)O)C(=O)N[C@@H](Cc1ccc(O)cc1)C(=O)N[C@@H](C)C(=O)N[C@@H](CC(N)=O)C(N)=O` (Ac-[Phe(3,4-Cl2)]DPPLHS[pT]AIYAN-NH2): the IC50 was 716 nM in test [1] (read-out: IC50) and “Not Active” in test [2].

The values above are taken from ChEMBL document CHEMBL4118220, “Design, synthesis and biological evaluation of phosphopeptides as Polo-like kinase 1 Polo-box domain inhibitors” (Bioorg Med Chem, 2018).
